Experimental findings from PubChem BioAssay (NCI) are described below.

Experiment in all cases: NCI tumour cell line growth inhibition, 48 h
For test [1], the system named is KM12 colon.
The subject of test [2] is BT-549 breast.
Test [3] has as its system SNB-19 CNS.
Test [4] has as its system DU-145 prostate.
Test [5] has as its system SF-295 CNS.
Test [6] concerns OVCAR-4 ovarian.
In test [7] the test system is SR leukemia.
Test [8] relates to A549 NSCLC.
Test [9] deals with HCC-2998 colon.
The test system of test [10] is CAKI-1 renal.

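These data come from cells grown in 96-well plates and exposed to compound for 48 hours at five concentrations. Here, GI50 denotes the concentration required for 50% inhibition of growth. TGI marks complete inhibition of growth.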 A value given as a limit tells only on which side of the number the result lay.

For the compound `CC1=CC2=C(C(N)=O)C(=O)OC2(C)C(c2ccccc2)C1` (stereo not drawn), the TGI in [1], in [2], in test [3], in test [4], in test [5] and in test [6] was above 100 µM in each case. Further, the TGI in test [7] and in test [8] was above 100 µM throughout.
In the case of `C#C[C@@]1(O)[C@@H](CO)O[C@@H](n2ccc3c(N)ncnc32)[C@@H]1O`, the GI50 in test [1] is 1.82 µM; in test [2], 1.63 µM; in test [3] it was 1.62 µM; in [4], 0.563 µM; in [5], 1.73 µM; in test [6], 1.97 µM. The figures for the GI50 in test [9], in [7] and in test [8] were 1.45 µM, 0.817 µM and 1.31 µM, respectively. Besides, the TGI in [1] is 10.9 µM; in test [2], 3.64 µM; in [3], 6.61 µM; in [4], 6.56 µM; in test [5] it was 5.33 µM; in test [6], 7.79 µM. Moreover, the TGI in test [9] was 3.12 µM; in test [7] it was above 100 µM; in [8], above 100 µM.
As for `OCCNc1ncnc2c1ncn2C1OC(CO)C(O)C1O` (stereo not drawn), the TGI is above 100 µM in [1]; above 100 µM in [2]; above 100 µM in test [3]; 67.7 µM in test [4]; above 100 µM in [5]; above 100 µM in test [6]. Besides, the TGI in test [9], in [8] and in test [10] was above 100 µM throughout.
Take `COc1ccc(/C=C/C(=O)c2ccc3cc(OC)c(OC)cc3c2)cc1OC`: the GI50 in test [1] was 2.69 µM; in test [2], 2.55 µM; in [3], 5.29 µM; in test [4], 4.01 µM; in test [6], 3.5 µM; in [9] it was 3.92 µM. For the same compound, the GI50 in test [7] was 1.69 µM; in test [8], 2.59 µM; in test [10] it was 4.29 µM. Besides, the TGI in [1] came to 7.95 µM; in test [2], 8.39 µM; in test [3], 29.8 µM; in test [4], 15.7 µM; in test [6], 36.7 µM; in test [9], 13.9 µM. For the same compound, the TGI in test [7] was above 100 µM; in test [8], 10.6 µM; in test [10], 65.4 µM.
Turning to `O=C1c2cc3c(cc2[C@@H]2[C@H]1c1ccc([N+](=O)[O-])cc1C(=O)N2CCCCl)OCO3`, the GI50 is below 0.0113 µM in test [1]; below 0.0139 µM in test [3]; below 0.01 µM in test [4]; below 0.01 µM in test [5]; 0.151 µM in test [6]; 0.0164 µM in test [9]. For the same compound, the GI50 in test [8] and in test [10] was below 0.01 µM in each case. Moreover, the TGI in test [1] is 2.05 µM; in test [3] it was above 100 µM; in test [5], 11.4 µM; in [6], above 100 µM; in test [9], 0.568 µM; in test [8] it was above 100 µM. This compound also displayed a TGI in test [10] below 0.01 µM.
Regarding `ICCC(c1ccccc1)(c1ccccc1)c1ccccc1`, the GI50 is 4.45 µM in test [1]; 14.4 µM in test [3]; 10.1 µM in test [4]; 2.02 µM in test [5]; 11.6 µM in test [6]; 8.41 µM in test [9]. The GI50 was 1.93 µM in test [7], 5.92 µM in test [8] and 3.83 µM in [10]. In addition, the TGI in test [1] was found to be 15.4 µM; in test [3], 31.1 µM; in test [4] it was 21.6 µM; in test [5] it was 5.07 µM; in test [6] it was 30.8 µM; in test [9], 27.6 µM. Moreover, the values for the TGI in [7], in test [8] and in [10] were 5 µM, 19.6 µM and 17.1 µM, respectively.
Turning to `CC[C@H](C)[C@H](NC(=O)Nc1ccccc1)C(=O)N(C)[C@H](C[C@@H](OC(C)=O)c1nc(C(=O)N[C@@H](Cc2ccccc2)C[C@H](C)C(=O)OC)cs1)C(C)C`, the GI50 in test [1] was 2.09 µM; in test [2] it was 3.09 µM; in test [3], 5.05 µM; in test [4], 3.94 µM; in test [5] it was 2.76 µM; in [6] it was 6.06 µM. Moreover, the values for the GI50 in test [9], in test [8] and in test [10] were 3.48 µM, 7.49 µM and 9.01 µM, respectively. Besides, the TGI in test [1] is above 100 µM; in test [2], 41.2 µM; in test [3], above 100 µM; in [4], above 100 µM; in test [5] it was above 100 µM; in [6], above 100 µM. For the same compound, the TGI in test [9], in test [8] and in [10] was above 100 µM each time.
In the case of `O=C(O)C[O][Sb][O]CC(=O)O`, the GI50 in test [1], in [2], in test [3], in test [4], in [5] and in [6] was above 100 µM each time. In addition, the GI50 in test [7], in [8] and in test [10] was above 100 µM in each case. Moreover, the TGI in test [1], in [2], in test [3], in [4], in test [5] and in test [6] was above 100 µM in each case. Also, the TGI in test [7], in test [8] and in test [10] was above 100 µM each time.
Take `O=Cc1ccc(Oc2c3ccccc3nc3occc23)cc1`: the GI50 was 8.79 µM in [1]; 28.8 µM in test [3]; 17.6 µM in test [4]; 14.4 µM in test [5]; 15.8 µM in [6]; 16 µM in [7]. In addition, the GI50 in test [8] is 22.4 µM; in [10], 12.7 µM. For the same compound, the TGI in [1] is 25.4 µM; in [3], above 100 µM; in test [4], 43.7 µM; in test [5], 36.8 µM; in [6], 52.9 µM; in [7] it was 44.7 µM. For the same compound, the TGI in test [8] was determined as 50.5 µM; in test [10], 30.2 µM.
For `CO/N=C(/COc1c(-c2ccccc2)oc2ccccc2c1=O)c1ccc(OC)cc1`, the GI50 was 56.1 µM in [1]; above 100 µM in test [2]; above 100 µM in test [4]; above 100 µM in [5]; 81.4 µM in [6]; above 100 µM in test [9]. In addition, the GI50 in [7] is 9.1 µM; in [8], above 100 µM; in test [10] it was above 100 µM. For the same compound, the TGI in test [1], in test [2], in [4], in [5], in test [6] and in test [9] was above 100 µM in each case. Further, the TGI in [7] was 53.4 µM; in [8], above 100 µM; in test [10], above 100 µM.
With `CC(=O)OC1CCC2(C)C(CCC3C4CC=C(C(C)=O)C4(C)OC(=O)CC32)C1` (stereo not drawn), the GI50 is 9.83 µM in [1]; 1.58 µM in test [2]; 13.3 µM in [3]; 2.36 µM in [4]; 1.7 µM in test [6]; 2.21 µM in test [9]. For the same compound, the figures for the GI50 in [7], in test [8] and in [10] were 0.382 µM, 7.22 µM and 2.54 µM, respectively. Further, the TGI in test [1] was determined as 22.7 µM; in test [2], 3.08 µM; in test [3], 27.9 µM; in test [4], 6.1 µM; in [6], 3.31 µM; in test [9], 4.06 µM. Moreover, the TGI in test [7] was 18.2 µM; in [8] it was 23.1 µM; in [10], 9 µM.
Turning to `C[C@]12CCC3c4ccc(O)cc4CCC3C1Cc1ccc(O)cc12` (stereo partly drawn), the GI50 in test [1] is 3.4 µM; in [2], 6.57 µM; in test [3], 10.6 µM; in test [4], 11.5 µM; in test [5], 12.8 µM; in test [6], 15.3 µM. Also, the GI50 in [9] was 5.44 µM; in test [8], 13 µM; in [10] it was 10.8 µM. Also, the TGI was 20.6 µM in test [1]; 23.4 µM in test [2]; 22.7 µM in test [3]; 28.5 µM in test [4]; 34.2 µM in test [5]; 92.7 µM in [6]. Further, the TGI in [9] came to 18.4 µM; in test [8], 38.4 µM; in test [10] it was 45.6 µM.
As to `CCCCCCCCCCCC[n+]1ccccc1`, the GI50 in test [1] is 1.12 µM; in test [2], 1.01 µM; in test [3] it was 1.3 µM; in test [4], 2.21 µM; in [5] it was 1.39 µM; in test [6], 0.515 µM. Also, the GI50 is 1.37 µM in [9], 0.202 µM in test [7] and 2.02 µM in test [8]. Further, the TGI in test [1] turned out to be 2.87 µM; in [2] it was 3.03 µM; in [3], 2.94 µM; in [4], 11.6 µM; in test [5] it was 4.1 µM; in test [6], 14.5 µM. In addition, the TGI in test [9] was 5.29 µM; in test [7] it was 2.15 µM; in test [8], 5.16 µM.
In the case of `Cc1ccc2c(Nc3cccc(Cl)c3F)ncc(NC(=O)c3csc4c(N)ncnc34)c2c1`, the GI50 is above 20.7 µM in test [1]; above 100 µM in [2]; above 100 µM in test [3]; above 100 µM in [4]; above 100 µM in test [5]; above 100 µM in test [6]. Besides, the values for the GI50 in test [9], in test [8] and in [10] were 0.281 µM, above 73.5 µM and 0.734 µM, respectively. Also, the TGI in test [1], in [2], in [3], in test [4], in test [5] and in [6] was above 100 µM in each case. Also, the TGI in test [9], in test [8] and in test [10] was above 100 µM each time.
For `COc1cc(Cn2ccc3c2-c2oncc2CC3)cc(OC)c1`, the GI50 is 2.02 µM in test [1]; 5.89 µM in test [3]; 3.99 µM in test [4]; 3.05 µM in [5]; 16.4 µM in [6]; 7.13 µM in [9]. For the same compound, the results for the GI50 in [7], in test [8] and in test [10] were 0.851 µM, 5.23 µM and 2.79 µM, respectively. Moreover, the TGI in test [1] is 28.5 µM; in test [3], above 100 µM; in [4] it was above 100 µM; in test [5], 28.8 µM; in test [6] it was above 100 µM; in test [9], 90.1 µM. In addition, the TGI in test [7] was 31.1 µM; in test [8], above 100 µM; in [10], 39.5 µM.
Consider `Cc1ncc(C(=O)Nc2ccc(CN3CCN(C)CC3)c(C(F)(F)F)c2)cc1C#Cc1cnc(N)c2ncccc12`, for which the TGI was found to be 1.33 µM in test [1]; 18.9 µM in test [2]; 5.33 µM in [3]; 2.08 µM in [4]; 10.6 µM in [5]; 2.69 µM in test [8]. This compound also registered a TGI in [10] of 1.46 µM. Moreover, the GI50 in [2] is 1.65 µM; in test [3], 2.16 µM; in test [4], 0.18 µM; in test [5], 1.26 µM; in test [7], 0.472 µM; in [8] it was 0.391 µM. For the same compound, in test [10], the GI50 was 0.0719 µM.
Take `CO[C@H]1C[C@@H]2CC[C@@H](C)[C@@](O)(O2)C(=O)C(=O)N2CCCC[C@H]2C(=O)O[C@H]([C@H](C)C[C@@H]2CC[C@@H](OP(C)(C)=O)[C@H](OC)C2)CC(=O)[C@H](C)/C=C(\C)[C@@H](O)[C@@H](OC)C(=O)[C@H](C)C[C@H](C)/C=C/C=C/C=C/1C`: the GI50 was 11.1 µM in [1]; below 0.0131 µM in test [2]; 7.03 µM in [3]; 10.4 µM in test [4]; below 0.01 µM in test [5]; 0.698 µM in test [6]. In addition, the GI50 was 5.02 µM in [9], below 0.01 µM in test [8] and 10.8 µM in test [10]. In addition, the TGI in test [1] turned out to be 25.3 µM; in test [2], 18.6 µM; in test [3], 23.5 µM; in [4], 22.4 µM; in test [5], 15.5 µM; in [6], 21.3 µM. Moreover, the TGI in test [9] was found to be 24.7 µM; in test [8], 20.7 µM; in test [10], 25.9 µM.
